Reference: ChEMBL document CHEMBL4411259, “Medicinal properties of terpenes found in Cannabis sativa and Humulus lupulus” (Eur J Med Chem, 2018)
Values after ≈ are worked out from the molar mass of the structure shown.

Assays:
HepG2 [1] = assay: Antiinvasive activity against human HepG2 cells by matrigel-based transwell assay; type: functional, cell-based
SMMC-7721 = assay: Antiinvasive activity against human SMMC7721 cells by matrigel-based transwell assay; type: functional, cell-based
MHCC97H = assay: Antiinvasive activity against human MHCC97H cells by matrigel-based transwell assay; type: functional, cell-based
RAW264.7 = assay: Inhibition of LPS-induced nitric oxide production in mouse RAW264.7 cells measured after 20 hrs by Griess assay; type: functional, cell-based; settings: RAW264.7, 20 h
T47D = assay: Cytotoxicity against human T47D cells assessed as inhibition of cell proliferation after 24 hrs by WST1 assay; type: functional, cell-based
SW-620 = assay: Cytotoxicity against human SW620 cells assessed as inhibition of cell proliferation after 24 hrs by WST1 assay; type: functional, cell-based; settings: SW-620, 24 h
HepG2 [2] = assay: Cytotoxicity against human HepG2 cells assessed as inhibition of cell proliferation after 24 hrs by WST1 assay; type: functional, cell-based; settings: HepG2, 24 h
U-937 = assay: Cytotoxicity against human U937 cells after 3 days by WST1 assay; type: functional, cell-based; settings: U-937, 72 h
HeLa = assay: Cytotoxicity against human HeLa cells after 3 days by WST1 assay; type: functional, cell-based; settings: 72 h
Trichophyton rubrum = assay: Antimicrobial activity against Trichophyton rubrum after 7 days by microdilution method; type: functional; settings: 168 h
Mus musculus [3] = organism: Mus musculus; assay: Sedative effect in Swiss mouse assessed as reduction in motility at plasma concentration of 27 nM; type: functional; design: scale not given: the % may be the effect or the level left
Escherichia coli = assay: Antibacterial activity against Escherichia coli CMCC 44102 after 24 hrs by broth dilution method; type: functional
Gardnerella vaginalis = assay: Antimicrobial activity against Gardnerella vaginalis; type: functional
Candida albicans = assay: Antimicrobial activity against Candida albicans; type: functional
Mus musculus [4] = organism: Mus musculus; assay: Sedative effect in Swiss mouse assessed as reduction in motility at 34 nM; type: functional; design: scale not given: the % may be the effect or the level left
U373 MG = assay: Cytoprotective activity against H2O2-induced cell death in human U373MG cells assessed as increase in cell viability preincubated for 24 hrs followed by H2O2-stimulation and measured after 30 mins by MTT assay; type: functional, cell-based, U-373MG ATCC
Mus musculus [5] = organism: Mus musculus; assay: Sedative effect in Swiss mouse assessed as reduction in motility; type: functional; design: scale not given: the % may be the effect or the level left
HT-29 = assay: Cytotoxicity against human HT-29 cells assessed as reduction in cell viability after 24 hrs by MTT assay; type: functional, cell-based; settings: HT-29, 24 h
Cannabinoid receptor 2 [6] = target: T1, Cannabinoid receptor 2 (Homo sapiens, UniProt P34972); assay: Displacement of [3H]CP55940 from human CB2 expressed in CHOK1 cell membranes after 2 hrs by liquid scintillation counting method
Cannabinoid receptor 2 [7] = target: T1, Cannabinoid receptor 2; assay: Agonist activity at recombinant human Cb2 receptor expressed in CHOK1 cells assessed as inhibition of forskolin-stimulated cAMP levels measured up to 30 mins by luminescence assay; type: functional, cell-based
[8] = Antitumor activity against human HubCCA1 cells xenografted in BALB/c nude mouse assessed as reduction in tumor size at 100 mg/kg, po administered once daily for 30 days measured every 3 consecutive days during compound dosing; type: functional; design: scale not given: the % may be the effect or the level left
[9] = Antitumor activity against human HubCCA1 cells xenografted in BALB/c nude mouse assessed as reduction in lung metastasis at 100 mg/kg, po administered once daily for 30 days measured post last dose by haematoxylin-eosin staining based assay; type: functional; design: scale not given: the % may be the effect or the level left
[10] = Antitumor activity against human HubCCA1 cells xenografted in BALB/c nude mouse assessed as mouse survival at 100 mg/kg, po administered once daily for 30 days; type: functional
[11] = target: T2, Transient receptor potential cation channel subfamily A member 1 (Homo sapiens, UniProt O75762); assay: Agonist activity at human TRPA1
Rattus norvegicus = assay: Antiischemic stroke activity in iv dosed Sprague-Dawley rat middle cerebral artery occlusion-induced ischemia-reperfusion injury model assessed as decrease in infarct size by TTC staining based assay; type: functional
[12] = target: T2, Transient receptor potential cation channel subfamily A member 1; assay: Antagonist activity at TRPA1 (unknown origin) expressed in Xenopus laevis oocytes assessed as inhibition of mustard oil-induced currents by two-electrode voltage clamp method; type: cell-based
[13] = Toxicity in po dosed albino Wistar rat; type: organism-based; settings: in vivo
Leukemia cell = assay: Cytotoxicity against ALL/AML patient derived primary leukemia cells after 24 hrs by LDH release assay; type: functional, cell-based; settings: Homo sapiens
[14] = target: Neuronal acetylcholine receptor subunit alpha-7 (Homo sapiens, UniProt P36544); assay: Antagonist activity at human alpha7 nACHR expressed in Xenopus laevis oocytes assessed as inhibition of acetylcholine-induced currents at -70 mV holding potential by electrophysiology; type: cell-based
[15] = Inhibition of IL1beta-induced nitric oxide production in human primary chondrocytes preincubated for 30 mins followed by IL1beta-stimulation and measured after 24 hrs by Griess assay; type: functional, cell-based
[16] = Dermal toxicity in rabbit; type: organism-based, Oryctolagus cuniculus; settings: in vivo, topical or ocular
[17] = Toxicity in po dosed rat; type: organism-based; settings: in vivo
[18] = Toxicity in po dosed mouse; type: organism-based; settings: in vivo
HL-60 = assay: Cytotoxicity against human HL60 cells assessed as reduction in cell viability after 24 hrs by MTT assay; type: functional, cell-based; settings: HL-60, 24 h
Duodenum = assay: Myorelaxant activity in California White rabbit duodenum assessed as relaxation of high-potassium-induced contraction; type: functional, tissue-based; settings: Oryctolagus cuniculus
Coccidioides posadasii = assay: Antifungal activity against Coccidioides posadasii filamentous phase after 48 hrs by broth microdilution method; type: functional
Histoplasma capsulatum [19] = assay: Antifungal activity against Histoplasma capsulatum filamentous phase after 7 days by broth microdilution method; type: functional; settings: 168 h
Histoplasma capsulatum [20] = assay: Antifungal activity against Histoplasma capsulatum yeast phase after 4 days by broth microdilution method; type: functional; settings: 96 h

T1 sequence (P34972 whole entry): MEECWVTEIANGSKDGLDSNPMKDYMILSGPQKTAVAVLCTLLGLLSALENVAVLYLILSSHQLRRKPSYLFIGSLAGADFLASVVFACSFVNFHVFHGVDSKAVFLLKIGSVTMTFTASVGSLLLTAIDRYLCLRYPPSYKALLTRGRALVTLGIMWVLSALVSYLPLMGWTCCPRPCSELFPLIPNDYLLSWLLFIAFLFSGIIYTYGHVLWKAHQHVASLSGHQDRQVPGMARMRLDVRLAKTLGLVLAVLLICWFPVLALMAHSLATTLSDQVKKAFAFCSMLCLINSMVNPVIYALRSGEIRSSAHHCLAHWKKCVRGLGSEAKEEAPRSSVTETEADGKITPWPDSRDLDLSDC
T2 sequence (O75762 whole entry, the tested form may be a part): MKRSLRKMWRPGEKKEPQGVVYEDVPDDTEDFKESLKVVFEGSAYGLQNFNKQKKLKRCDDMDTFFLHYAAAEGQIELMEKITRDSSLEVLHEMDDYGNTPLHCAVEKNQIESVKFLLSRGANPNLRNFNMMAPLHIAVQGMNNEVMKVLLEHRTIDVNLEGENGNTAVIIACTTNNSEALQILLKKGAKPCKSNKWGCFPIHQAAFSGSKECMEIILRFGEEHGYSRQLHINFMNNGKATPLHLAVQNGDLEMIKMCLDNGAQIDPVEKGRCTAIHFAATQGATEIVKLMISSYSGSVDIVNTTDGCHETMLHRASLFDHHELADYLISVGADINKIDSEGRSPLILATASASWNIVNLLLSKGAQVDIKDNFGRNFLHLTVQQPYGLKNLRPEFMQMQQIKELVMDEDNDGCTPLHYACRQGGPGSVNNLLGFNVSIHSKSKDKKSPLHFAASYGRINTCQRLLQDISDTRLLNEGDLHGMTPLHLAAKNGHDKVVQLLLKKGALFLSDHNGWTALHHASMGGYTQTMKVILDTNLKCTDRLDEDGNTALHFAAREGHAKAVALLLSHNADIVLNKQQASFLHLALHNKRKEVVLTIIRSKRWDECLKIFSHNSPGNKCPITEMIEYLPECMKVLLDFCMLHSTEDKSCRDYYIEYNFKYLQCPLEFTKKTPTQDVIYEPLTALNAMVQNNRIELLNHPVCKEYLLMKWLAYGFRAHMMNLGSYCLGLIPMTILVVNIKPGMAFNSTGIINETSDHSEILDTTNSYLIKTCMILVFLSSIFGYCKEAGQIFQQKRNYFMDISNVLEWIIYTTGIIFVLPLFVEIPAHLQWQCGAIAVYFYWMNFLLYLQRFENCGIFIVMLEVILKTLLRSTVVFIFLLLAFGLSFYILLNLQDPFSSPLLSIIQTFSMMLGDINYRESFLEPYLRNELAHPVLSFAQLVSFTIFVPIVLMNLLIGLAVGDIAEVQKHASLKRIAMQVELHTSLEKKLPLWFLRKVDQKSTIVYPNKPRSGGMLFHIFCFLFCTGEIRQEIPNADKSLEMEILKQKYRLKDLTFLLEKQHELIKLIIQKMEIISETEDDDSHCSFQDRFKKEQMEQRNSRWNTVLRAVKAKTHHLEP
Sequence of Neuronal acetylcholine receptor subunit alpha-7 (P36544 whole entry): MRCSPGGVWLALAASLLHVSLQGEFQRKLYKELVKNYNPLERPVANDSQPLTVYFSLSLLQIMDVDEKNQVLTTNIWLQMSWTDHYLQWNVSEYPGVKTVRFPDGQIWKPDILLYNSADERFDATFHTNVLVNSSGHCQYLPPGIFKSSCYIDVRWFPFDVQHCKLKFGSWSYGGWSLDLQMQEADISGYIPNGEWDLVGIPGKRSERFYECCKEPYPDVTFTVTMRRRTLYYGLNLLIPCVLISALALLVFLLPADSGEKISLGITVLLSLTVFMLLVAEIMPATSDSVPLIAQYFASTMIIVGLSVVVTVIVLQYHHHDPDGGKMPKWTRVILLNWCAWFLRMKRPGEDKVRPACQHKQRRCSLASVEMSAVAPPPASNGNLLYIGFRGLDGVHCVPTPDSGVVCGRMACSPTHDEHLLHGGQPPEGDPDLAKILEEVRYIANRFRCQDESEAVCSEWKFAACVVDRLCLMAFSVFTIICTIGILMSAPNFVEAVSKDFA

In the case of `C=C(C)[C@H]1CC=C(CO)CC1`, the IC50 (HepG2 [1]) is reported as 100 µM, the IC50 (SMMC-7721) is reported as 100 µM and the IC50 (MHCC97H) is reported as 100 µM.
In the case of `C/C1=C\CC(C)(C)/C=C/C(=O)/C(C)=C/C(O)C1` (stereo not drawn), the IC50 (RAW264.7) is reported as 14.1 µM.
Work on `C=C[C@@](C)(O)CCC=C(C)C` yielded an IC50 (T47D) of 224 µM, an IC50 (SW-620) of 222 µM and an IC50 (HepG2 [2]) of 290 µM. The IC50 (U-937) was 3 µM, the IC50 (HeLa) was 11 µM and the MIC (Trichophyton rubrum) was 260 µg/mL (≈ 1690 µM). For the same compound, the Activity (Mus musculus [3]) was 73%.
Compound `CC1=CCC(C(C)(C)O)CC1` (stereo not drawn) has an MIC (Escherichia coli) of 0.78 uL/ml, an MIC (Gardnerella vaginalis) of 0.06 %v/v and an MIC (Candida albicans) of 0.125 %v/v. The Activity (Mus musculus [4]) was 45%.
For `CC1=CC[C@@H]2C[C@H]1C2(C)C` [1R-(+)-ALPHA-PINENE], the IC50 (U373 MG) was 80 µM and the Activity (Mus musculus [5]) was 14%.
Work on `C/C1=C\CC/C(C)=C/CC(C)(C)/C=C/C1` [ALPHA-HUMULONE] yielded an IC50 (HT-29) of 54 µM.
In the case of `C=C1CC/C=C(\C)CC[C@@H]2[C@@H]1CC2(C)C` [BETA-CARYOPHYLLENE], the Ki (Cannabinoid receptor 2 [6]) is reported as 0.15 µM and the EC50 (Cannabinoid receptor 2 [7]) is reported as 1.9 µM.
`C=C1CCC[C@]2(C)CC[C@@H](C(C)(C)O)C[C@@H]12` [BETA-EUDESMOL] gave an Activity [8] of 92%, an Activity [9] of 95% and an Activity [10] of 64%. It also gave an EC50 [11] of 33 µM.
For `CC1(C)C2CCC1(C)C(O)C2` (stereo not drawn) [BORNEOL], the ED50 (Rattus norvegicus) was 0.36 mg/kg and the IC50 [12] was 300 µM.
`CC(C)=CCC/C(C)=C/CO` [GERANIOL] gave an LD50 [13] of 3600 mg/kg.
For `CC(C)=CCC[C@](C)(O)[C@@H]1CC=C(C)CC1` [LEVOMENOL], the IC50 (Leukemia cell) was 14 µM and the IC50 [14] was 3.1 µM.
In the case of `C=CC(=C)CCC=C(C)C` [MYRCENE], the IC50 [15] is reported as 37.3 µg/mL (≈ 274 µM).
Compound `C=CC(C)(O)CC/C=C(\C)CCC=C(C)C` (stereo not drawn) [NEROLIDOL] has an LD50 [16] of over 2000 mg/kg, an LD50 [17] of 5000 mg/kg and an LD50 [18] of 10000 mg/kg.
`CC1=CCC(O)(C(C)C)CC1` (stereo not drawn) [TERPINEOL] gave an IC50 (HL-60) of 30 µM, an IC50 (Duodenum) of 170 µM and an MIC (Coccidioides posadasii) of 250 µg/mL (≈ 1620 µM). It also gave an MIC (Histoplasma capsulatum [19]) of 30 µg/mL (≈ 194 µM) and an MIC (Histoplasma capsulatum [20]) of 10 µg/mL (≈ 64.8 µM).
